Experimental findings from patent US6525001B1, “Substituted pyrimidine and pyridine herbicides” (Mid-American Commercialization Corporation, priority 1997, dated 2003) are described below.

Holding throughout (format): in vivo
In test [1] the test system is crabgrass (Digitaria spp.). In words: Test A pre-/postemergence. Particulars: 0 to 10 scale. Further details: key: 0 is no effect; 10 is complete control. How it is done:
(§1) Seeds of barnyardgrass (Echinochloa crus-galli), crabgrass (Digitaria spp.), morningglory (Ipomoea spp.), and velvetleaf (Abutilon theophrasti) were planted into a sandy loam soil and treated preemergence by soil drench with test chemicals formulated in a non-phytotoxic solvent mixture which includes a surfactant. At the same time, these crop and weed species were also treated postemergence sprayed to runoff, with test chemicals formulated in the same manner. Plants ranged in height from two to eighteen cm and were in the one to two leaf stage for the postemergence treatment. Treated plants and untreated controls were maintained in a greenhouse for approximately eleven days, after which all treated plants were compared to untreated controls and visually evaluated for injury. Plant response ratings, summarized in Table A, are based on a 0 to 10 scale where 0 is no effect and 10 is complete control. A dash (−) response means no test results.

Test [2] has as its system velvetleaf (Abutilon theophrasti). In words: Test A pre-/postemergence. More on the design: key: 0 is no effect; 10 is complete control. The settings on record: 0 to 10 scale. How it is done:
as §1

For test [3], the system named is barnyardgrass (Echinochloa crus-galli). In words: Test A pre-/postemergence. Further details: key: 0 is no effect; 10 is complete control. Particulars: 0 to 10 scale. As for the experimental part:
as §1

For test [4], the system named is morningglory (Ipomoea spp.). The experiment in a line: Test A pre-/postemergence. More on the design: key: 0 is no effect; 10 is complete control. The settings on record: 0 to 10 scale. How it is done:
as §1

For test [5], the system named is field bindweed (Convolvulus arvensis). In words: Test C. Further details: key: 0 was no effect; 100 was complete control. The settings on record: PREEMERGENCE
The test system of test [6] is purple nutsedge (Cyperus rotundus). The experiment in a line: Test C. Further details: key: 0 was no effect; 100 was complete control. Particulars: PREEMERGENCE
Test [7] has as its system wild poinsettia (Euphorbia heterophylla). The experiment in a line: Test C. Particulars: PREEMERGENCE
Further details: key: 0 was no effect; 100 was complete control.

Test [8] relates to ivyleaf morningglory (Ipomoea hederacea). In words: Test C. More on the design: key: 0 was no effect; 100 was complete control. Particulars: PREEMERGENCE
Test [9] concerns surinam grass (Brachiaria decumbens). The experiment in a line: Test C. More on the design: key: 0 was no effect; 100 was complete control. The settings on record: PREEMERGENCE
The subject of a further test is corn (Zea mays). In words: Test C. More on the design: key: 0 was no effect; 100 was complete control. Particulars: PREEMERGENCE
Test [10] deals with hairy beggarticks (Bidens pilosa). The experiment in a line: Test C. Particulars: PREEMERGENCE
More on the design: key: 0 was no effect; 100 was complete control.

Where [11] appears, read: PRE SOIL DRENCH, Rate 2000 g/ha.
The mark [12] stands for this setting: postemergence SPRAYED TO RUNOFF, Rate 1000 g/ha.

Turning to `Cc1cnc(-n2ccc(C(F)(F)F)n2)nc1C(=O)c1cccc(C(F)(F)F)c1` [Compound 59], the “Plant response rating, Crabgrass” value in test [1] (setting [11]) is 10; in test [1] (setting [12]), 9. The “Plant response rating, Velvetleaf” value in [2] (setting [11]) turned out to be 10; in test [2] (setting [12]), 9. For the same compound, the “Plant response rating, Barnyardgrass” value is listed as 10 in test [3] (setting [11]) and 9 in test [3] (setting [12]). The “Plant response rating, Morningglory” value in test [4] (setting [11]) was found to be 9; in test [4] (setting [12]), 8.

As for `Cc1cnc(-c2ccc(Cl)cc2)nc1Cn1ccc(C(F)(F)F)n1` [Compound 6], the “Plant response rating, Crabgrass” value in test [1] (setting [11]) and in test [1] (setting [12]) was 9 in each case. In addition, the “Plant response rating, Velvetleaf” value in [2] (setting [11]) is given as 8; in test [2] (setting [12]), 9. Moreover, the “Plant response rating, Barnyardgrass” value in test [3] (setting [11]) and in [3] (setting [12]) was 8 in each case. For the same compound, the “Plant response rating, Morningglory” value in [4] (setting [11]) was determined as 5; in [4] (setting [12]), 6.

On to `Cc1cnc(-c2ccc(C(F)(F)F)cc2)nc1C(=O)c1ccc(C(F)(F)F)cc1` [Compound 74], for which the results for the “Plant response rating, Crabgrass” value in test [1] (setting [11]) and in test [1] (setting [12]) were 7 and 8, respectively. For the same compound, the “Plant response rating, Velvetleaf” value in test [2] (setting [11]) is reported as 4; in test [2] (setting [12]), 5. Moreover, the “Plant response rating, Barnyardgrass” value turned out to be 1 in [3] (setting [11]) and 5 in test [3] (setting [12]). The “Plant response rating, Morningglory” value worked out at 1 in [4] (setting [11]) and 10 in [4] (setting [12]).

For the compound `Cc1cnc(-c2ccc(C(F)(F)F)cc2)nc1Cn1cc(I)cn1` [Compound 12], the “Plant response rating, Crabgrass” value is reported as 9 in [1] (setting [11]) and 8 in test [1] (setting [12]). Further, the “Plant response rating, Velvetleaf” value in test [2] (setting [11]) is 5; in test [2] (setting [12]), 6. In addition, the “Plant response rating, Barnyardgrass” value was determined as 7 in test [3] (setting [11]) and 5 in test [3] (setting [12]). In addition, the “Plant response rating, Morningglory” value is 3 in test [4] (setting [11]) and 2 in test [4] (setting [12]).

On to `Cc1cnc(-n2ccc(C(F)(F)F)n2)nc1C(=O)c1ccc(C(F)(F)F)cc1` [Compound 65], for which the “Plant response rating, Crabgrass” value is 8 in [1] (setting [11]) and 5 in [1] (setting [12]). The “Plant response rating, Velvetleaf” value is recorded as 4 in test [2] (setting [11]) and 5 in test [2] (setting [12]). Further, the “Plant response rating, Barnyardgrass” value is recorded as 5 in [3] (setting [11]) and 4 in test [3] (setting [12]). Moreover, the “Plant response rating, Morningglory” value in test [4] (setting [11]) stood at 4; in test [4] (setting [12]) it was 10.

Regarding `Cc1cnc(-c2ccc(C(F)(F)F)cc2)nc1Cn1nc(C(F)(F)F)cc1C` [Compound 13], the results for the “Plant response rating, Crabgrass” value in [1] (setting [11]) and in [1] (setting [12]) were 10 and 9, respectively. The “Plant response rating, Velvetleaf” value in test [2] (setting [11]) was determined as 9; in test [2] (setting [12]), 8. Further, the results for the “Plant response rating, Barnyardgrass” value in [3] (setting [11]) and in test [3] (setting [12]) were 9 and 6, respectively. Further, the “Plant response rating, Morningglory” value in test [4] (setting [11]) came out at 3; in test [4] (setting [12]), 2.

As for `Cc1cnc(-n2cnc(C(F)(F)F)n2)nc1Cc1cccc(C(F)(F)F)c1` [Compound 43], the “Plant response rating, Field bindweed” value in [5] (Rate 35 g/ha), in [5] (Rate 70 g/ha) and in [5] (Rate 140 g/ha) was 100 each time. Besides, the “Plant response rating, Purple nutsedge” value in test [6] (Rate 35 g/ha), in [6] (Rate 70 g/ha) and in [6] (Rate 140 g/ha) was 0 in each case. The “Plant response rating, Wild poinsettia” value came to 10 in [7] (Rate 35 g/ha), 50 in test [7] (Rate 70 g/ha) and 60 in test [7] (Rate 140 g/ha). Besides, the figures for the “Plant response rating, I. morningglory” value in [8] (Rate 35 g/ha), in test [8] (Rate 70 g/ha) and in test [8] (Rate 140 g/ha) were 20, 100 and 100, respectively. Moreover, the “Plant response rating, Surinam grass” value in test [9] (Rate 35 g/ha) is given as 0; in [9] (Rate 70 g/ha), 5; in [9] (Rate 140 g/ha), 10. The “Plant response rating, Corn” value is given as 0 with corn (Zea mays) (Rate 35 g/ha), 30 in the test on corn (Zea mays) (Rate 70 g/ha) and 55 with corn (Zea mays) (Rate 140 g/ha). Moreover, the “Plant response rating, H. beggarticks” value worked out at 0 in test [10] (Rate 35 g/ha), 5 in test [10] (Rate 70 g/ha) and 100 in test [10] (Rate 140 g/ha).

`Cc1cnc(-c2ccc(C(F)(F)F)cc2)nc1C(=O)c1cccc(C(F)(F)F)c1` [Compound 73]: the “Plant response rating, Crabgrass” value in test [1] (setting [11]) stood at 10; in [1] (setting [12]), 9. The “Plant response rating, Velvetleaf” value in [2] (setting [11]) and in test [2] (setting [12]) was 9 in each case. Moreover, the “Plant response rating, Barnyardgrass” value in [3] (setting [11]) is on record as 9; in test [3] (setting [12]) it was 8. Further, the “Plant response rating, Morningglory” value in test [4] (setting [11]) and in [4] (setting [12]) was 9 throughout.

On to `Cc1cnc(-c2ccc(C(F)(F)F)cc2)nc1C(Cl)c1cccc(C(F)(F)F)c1` (racemic) [Compound 21], for which the “Plant response rating, Field bindweed” value in test [5] (Rate 70 g/ha) and in test [5] (Rate 140 g/ha) was 40 in each case. The “Plant response rating, Purple nutsedge” value in test [6] (Rate 35 g/ha), in test [6] (Rate 70 g/ha) and in test [6] (Rate 140 g/ha) was 0 each time. For the same compound, the entries for the “Plant response rating, Wild poinsettia” value in test [7] (Rate 35 g/ha), in [7] (Rate 70 g/ha) and in test [7] (Rate 140 g/ha) were 0, 5 and 5, respectively. The “Plant response rating, I. morningglory” value in test [8] (Rate 35 g/ha), in test [8] (Rate 70 g/ha) and in test [8] (Rate 140 g/ha) was 0 each time. Besides, the “Plant response rating, Surinam grass” value came to 0 in [9] (Rate 35 g/ha), 5 in test [9] (Rate 70 g/ha) and 10 in test [9] (Rate 140 g/ha). For the same compound, the “Plant response rating, Corn” value in the test on corn (Zea mays) (Rate 35 g/ha), with corn (Zea mays) (Rate 70 g/ha) and with corn (Zea mays) (Rate 140 g/ha) was 0 in each case. Also, the “Plant response rating, H. beggarticks” value in test [10] (Rate 35 g/ha) was 0; in [10] (Rate 70 g/ha) it was 0; in test [10] (Rate 140 g/ha), 40.

For `Cc1cnc(-n2ccc(C(F)(F)F)n2)nc1C(=O)c1cccc(OC(F)(F)F)c1` [Compound 66], the “Plant response rating, Field bindweed” value is on record as 40 in test [5] (Rate 35 g/ha), 80 in test [5] (Rate 70 g/ha) and 90 in [5] (Rate 140 g/ha). Moreover, the “Plant response rating, Purple nutsedge” value in test [6] (Rate 35 g/ha), in test [6] (Rate 70 g/ha) and in test [6] (Rate 140 g/ha) was 0 throughout. The “Plant response rating, Wild poinsettia” value in [7] (Rate 35 g/ha), in test [7] (Rate 70 g/ha) and in [7] (Rate 140 g/ha) was 0 throughout. Besides, the “Plant response rating, I. morningglory” value in test [8] (Rate 35 g/ha) is listed as 5; in [8] (Rate 70 g/ha), 10; in test [8] (Rate 140 g/ha), 10. In addition, the “Plant response rating, Surinam grass” value was found to be 5 in test [9] (Rate 35 g/ha), 5 in test [9] (Rate 70 g/ha) and 20 in test [9] (Rate 140 g/ha). Also, the “Plant response rating, Corn” value in the test on corn (Zea mays) (Rate 35 g/ha), with corn (Zea mays) (Rate 70 g/ha) and with corn (Zea mays) (Rate 140 g/ha) was 0 each time. The “Plant response rating, H. beggarticks” value in test [10] (Rate 35 g/ha), in test [10] (Rate 70 g/ha) and in test [10] (Rate 140 g/ha) was 0 each time.
